What is called EC50 is the concentration at which the effect is half-maximal.

Sequence of ΔF508 CFTR (P13569 with tags, fused parts or gaps DEL508-508): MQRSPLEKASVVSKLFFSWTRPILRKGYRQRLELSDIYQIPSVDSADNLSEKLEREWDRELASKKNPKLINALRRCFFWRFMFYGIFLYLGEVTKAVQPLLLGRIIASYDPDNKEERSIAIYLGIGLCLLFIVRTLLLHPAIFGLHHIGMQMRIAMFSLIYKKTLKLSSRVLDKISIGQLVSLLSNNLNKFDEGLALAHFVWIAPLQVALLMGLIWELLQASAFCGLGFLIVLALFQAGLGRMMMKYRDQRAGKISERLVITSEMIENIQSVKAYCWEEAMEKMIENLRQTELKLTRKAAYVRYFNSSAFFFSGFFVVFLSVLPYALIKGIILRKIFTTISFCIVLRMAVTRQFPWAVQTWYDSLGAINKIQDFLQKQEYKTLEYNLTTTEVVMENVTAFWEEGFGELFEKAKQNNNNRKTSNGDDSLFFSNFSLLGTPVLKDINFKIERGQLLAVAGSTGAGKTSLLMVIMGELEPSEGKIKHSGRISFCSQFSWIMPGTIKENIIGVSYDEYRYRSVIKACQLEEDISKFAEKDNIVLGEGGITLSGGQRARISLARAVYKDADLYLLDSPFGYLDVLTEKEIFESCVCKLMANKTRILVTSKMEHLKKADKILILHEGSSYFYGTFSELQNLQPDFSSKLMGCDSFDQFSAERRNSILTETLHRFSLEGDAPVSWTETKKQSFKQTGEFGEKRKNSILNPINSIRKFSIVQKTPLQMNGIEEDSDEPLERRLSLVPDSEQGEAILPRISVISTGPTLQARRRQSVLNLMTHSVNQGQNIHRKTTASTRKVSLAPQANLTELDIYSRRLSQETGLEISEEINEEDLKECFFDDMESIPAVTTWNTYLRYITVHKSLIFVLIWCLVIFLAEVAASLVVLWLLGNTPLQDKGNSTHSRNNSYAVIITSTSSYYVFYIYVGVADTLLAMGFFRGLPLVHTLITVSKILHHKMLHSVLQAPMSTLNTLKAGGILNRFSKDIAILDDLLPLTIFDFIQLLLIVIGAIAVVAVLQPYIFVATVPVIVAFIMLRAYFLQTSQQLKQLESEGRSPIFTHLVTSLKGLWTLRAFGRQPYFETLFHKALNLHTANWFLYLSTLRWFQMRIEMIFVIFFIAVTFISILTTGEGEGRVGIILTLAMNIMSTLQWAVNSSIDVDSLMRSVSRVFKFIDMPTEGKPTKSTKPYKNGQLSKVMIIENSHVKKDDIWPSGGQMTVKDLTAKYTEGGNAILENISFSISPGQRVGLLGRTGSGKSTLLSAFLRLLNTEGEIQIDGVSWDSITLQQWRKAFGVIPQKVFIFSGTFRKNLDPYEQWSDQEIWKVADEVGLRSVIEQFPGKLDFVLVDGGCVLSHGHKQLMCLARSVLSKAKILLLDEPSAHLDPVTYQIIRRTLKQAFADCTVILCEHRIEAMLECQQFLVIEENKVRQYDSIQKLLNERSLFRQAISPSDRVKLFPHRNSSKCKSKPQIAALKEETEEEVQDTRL

This assay has as its target ΔF508 CFTR (Homo sapiens, UniProt P13569, DEL508-508). Nature of the assay: TECC assay, FRT-CFTR ΔF508 protocol. Format: cell-based. The following applies: FRT cells stably transfected with ΔF508 CFTR, 3 μM VX809 24 hours, increase in transepithelial conductance (Gt), high expression cells. On the procedure:
For ΔF508 recordings, Fischer Rat Thyroid (FRT) cells stably transfected with ΔF508 CFTR (cell line from Rosalind Franklin University of Medicine and Science, North Chicago, Ill.) are plated on Transwell® supports (Costar 6.5 mm diameter, 0.4 μm pore size Cat n#3378). The cells are grown for 8-10 days under liquid-liquid interface conditions prior to electrophysiological readings. The differentiated cells are treated with 3 μM VX809 (2626 South Loop West, Suite 225, Houston, Tex. 77054 USA, Cat n# S1565) to allow sufficient expression of properly folded CFTR protein on the membrane (24 hours basolateral treatment), prior to electrophysiological recordings. For electrophysiological recording, the FRT-ΔF508 cells are mounted in the TECC heating plate for electrophysiological measurement and kept at 37° C. The epithelia are bathed in HEPES buffered culturing medium without FBS on both the basolateral and apical sides. Apical amiloride is used to inhibit the endogenous ENaC currents while forkolin is applied on both apical and basolateral side to stimulate CFTR. After forskolin triggering, compounds are added on both sides to test their potential for increasing CFTR gating. Measurements are done during a 10 minute timeframe with recordings every 2 minutes. The increase in transepithelial conductance (Gt) is used as a measure for the increased CFTR activity, EC50 values can be generated by measuring impact of different concentrations of compound on Gt of the cells, for this purpose each transwell is treated with a different compound concentration. Inh-172, an inhibitor specific for CFTR, is used to test the specificity of the tested compounds.
`CC(C)(O)CNC(=O)c1ncc(S(=O)(=O)c2ccc(OC(F)(F)F)cc2)cc1N` [Compound 1, 3-amino-N-(2-hydroxy-2-methylpropyl)-5-{[4-(trifluoromethoxy)phenyl]sulfonyl}pyridine-2-carboxamide] registered an EC50 of 180 nM.

`Nc1cc(S(=O)(=O)c2ccc(OC(F)(F)F)cc2)cnc1C(=O)NC[C@@H](O)C(F)(F)F` [Compound 37, 3-amino-N-[(2R)-3,3,3-trifluoro-2-hydroxypropyl]-5-{[4-(trifluoromethoxy)phenyl]sulfonyl}pyridine-2-carboxamide]: the EC50 was 10.4 nM.

Compound `CC(O)(CNC(=O)c1ncc(S(=O)(=O)c2ccc(OC(F)(F)F)cc2)cc1N)C(F)(F)F` (stereo not shown) [Compound 2, 3-amino-N-(3,3,3-trifluoro-2-hydroxy-2-methylpropyl)-5-{[4-(trifluoromethoxy)phenyl]sulfonyl}pyridine-2-carboxamide] yielded an EC50 of 70 nM.

Compound `Nc1cc(S(=O)(=O)c2ccc(F)cc2)cnc1C(=O)NC[C@@H](O)C(F)(F)F` [Compound 36, 3-amino-5-[(4-fluorophenyl)sulfonyl]-N-[(2R)-3,3,3-trifluoro-2-hydroxypropyl]pyridine-2-carboxamide] showed a concentration for a half-maximal effect (EC50) of 63.2 nM.

The values above are taken from US10047051B2, “Substituted pyridines and method of use” (AbbVie S.á{acute over (.)}r.l., priority 2015, dated 2018).
